Reference: article PMC5843756, “The drug interaction potential of daprodustat when coadministered with pioglitazone, rosuvastatin, or trimethoprim in healthy subjects” (Pharmacology Research & Perspectives, 2018)
“And” between values parts separate entries of the source, which are not always exact repeats. Equal entries are not always repeated. Where two headings read alike, the source gives them in different places.

Columns and labels:
[1] = Part A clinical DDI: plasma pharmacokinetics of pioglitazone and rosuvastatin with or without 100 mg daprodustat; settings: both, human, in vivo; for half-life: median elimination half-life, alone
Description: • Part A was an open‐label, randomized, single oral dose, two‐way cross‐over design that assessed the effects of a single, oral dose of 100 mg daprodustat on the pharmacokinetics of a single, oral dose of 15 mg pioglitazone and a single, oral dose of 10 mg rosuvastatin administered as a cocktail in healthy male and female subjects; • Part B was an open‐label, single sequence, two‐way cross‐over design to assess the effect of steady‐state trimethoprim (200 mg administered orally twice daily for 3 days) on the pharmacokinetics of a single, oral dose of 25 mg daprodustat in healthy, adult male and female subjects.
For Part A, for each of the two treatment periods, subjects remained in the Unit until 48 h postdosing, and were discharged following the last postdose assessment, if no clinically significant abnormalities were noted. Treatment periods were separated by at least a 7‐day washout. […]
Plasma analysis was performed under the management of Bioanalytical Science and Toxicokinetics, Drug Metabolism and Pharmacokinetics (DMPK), and GlaxoSmithKline (GSK). […] Samples were shipped frozen to PPD (Middleton, WI) where plasma samples were analyzed for rosuvastatin, pioglitazone, or daprodustat and predominant metabolites (GSK2391220 (M2), GSK2531403 (M3), GSK2487818 (M4), GSK2506102 (M5), GSK2531398 (M6), and GSK2531401 (M13)).
Pharmacokinetic analysis was performed using Phoenix WinNonLin® 6.3 (A Certara Company, Princeton, N.J). Pharmacokinetic parameters were determined from concentration–time data for pioglitazone, rosuvastatin, daprodustat, and predominant metabolites of daprodustat using standard noncompartmental methods.
Following loge transformation, AUC0‐∞ [defaulting to AUC0‐t if AUC0‐∞ could not be consistently determined] and C max of pioglitazone and rosuvastatin (for Part A) or daprodustat and six predominant metabolites (for Part B) were separately analyzed using a mixed‐effects model with fixed‐effect terms for treatment and period, and subject as a random effect in the model. […]

hemoglobin levels = system: hemoglobin levels; parameters: method as in Holdstock et al. 2016a; settings: ref Holdstock et al. 2016a, cited from earlier work
[2] = Tolerability (adverse events), Parts A and B; format: in vivo, human
Excerpt: Tolerability measures included adverse events (AEs), serious adverse events (SAEs), clinical laboratory findings, vital signs, and concurrent medication assessments. An AE was defined as any untoward medical occurrence in a subject or clinical investigation subject, temporally associated with the use of an investigational product, whether or not considered related to the investigational product. […] The investigator or site staff was responsible for detecting, documenting, and reporting events that met the definition of an AE or SAE.

OATP1B1 = settings: read-out: IC50 for inhibition of OATP1B1-mediated transport; in vitro transporter assays; earlier studies, no reference given; cited from earlier work
[3] = coadministration of gemfibrozil, strong CYP2C8 inhibitor; ref Johnson et al. 2013; cited from earlier work
[4] = Part B clinical DDI: plasma pharmacokinetics of daprodustat and predominant metabolites with or without steady-state trimethoprim; format: in vivo, human; settings: for AUC(0-t) / AUC(0-inf) / Cmax: geometric LS mean (%CV)
Description: For Part B, all subjects were administered daprodustat on Day 1 with pharmacokinetic blood sampling over the next 48 h. Starting the morning of Day 3, all subjects were administered 200‐mg trimethoprim twice‐daily for 3 days (i.e., through Day 5). On Day 6 subjects were administered concomitantly daprodustat with 200 mg trimethoprim in the morning, with pharmacokinetic blood sampling occurring over the next 48 h. Trimethoprim continued to be administered at 12 h postdosing on Day 6, and twice daily on Day 7.
Blood samples for PK analyses were collected on Day 1 and Day 6 predose and at 0.25, 0.5, 1, 2, 3, 4, 5, 6, 8, 12, 18, 24, and 48 h postdose.
No formal hypothesis was tested in this study.

CYP2C8 = settings: read-out: IC50 for inhibition of CYP2C8; human liver microsomes; earlier in vitro studies, no reference given; cited from earlier work
other CYPs = settings: human liver microsomes, up to 100 μmol/L; earlier in vitro studies, no reference given; cited from earlier work
[5] = parameters: method as in Deng et al. 2005; settings: pioglitazone with gemfibrozil, strong CYP2C8 inhibitor; ref Deng et al. 2005; cited from earlier work
[6] = Part B, Regimen C (n = 20) 25 mg daprodustat, Regimen D (n = 19) 25 mg daprodustat + 200 mg trimethoprim BID for 5 days
[7] = 25 mg daprodustat + trimethoprim vs daprodustat alone
[8] = test:reference (with vs without trimethoprim)

Structure (SMILES): O=C(O)CNC(=O)C1C(=O)N(C2CCCCC2)C(=O)N(C2CCCCC2)C1=O [daprodustat]
- Cmax ([1]; 100 mg): ~4.5 µM
- mean hemoglobin levels (hemoglobin levels; HDD subjects switched from ESA treatment, 5 mg once daily, 4-week treatment period): maintained mean hemoglobin levels
- mean increase in hemoglobin (hemoglobin levels; NDD patients naïve to ESA treatment, oral 5 mg once daily, over 4 weeks): 1 gm/dL
- Aphthous stomatitis [2, 6]: 0 n (%)
- Catheter site phlebitis [2, 6]: 0 n (%)
- Constipation [2, 6]: 1 (5) n (%)
- Diarrhea [2, 6]: 2 (10%) n (%) and 2 (10) n (%)
- Nausea [2, 6]: 0 n (%)
- Rhinitis [2, 6]: 0 n (%)
- Tongue coated [2, 6]: 0 n (%)
- Vomiting [2, 6]: 1 (5) n (%)
- Vulvovaginal mycotic infection [2, 6]: 0 n (%)
- proportion of subjects reporting AEs ([2]; per regimen, Parts A and B, healthy subjects): 10%
- IC50 (OATP1B1): 6 µM
- fold increase in daprodustat AUC with gemfibrozil [3]: 19 fold
- fold increase in daprodustat Cmax with gemfibrozil [3]: 4 fold
- fold increase in AUC with trimethoprim coadministration [4, 7]: 1.48 fold
- fold increase in Cmax with trimethoprim coadministration [4, 7]: 1.28 fold
- increase in plasma AUC with trimethoprim coadministration [4, 7]: 48%
- increase in plasma Cmax with trimethoprim coadministration [4, 7]: 28%
- AUC(0-t) ([4]; both sexes, human, oral, reference: 25 mg daprodustat alone, plasma, read-out: AUC0-t, Reference): 936 ng·h/mL
- AUC(0-inf) ([4]; both sexes, human, oral, reference: 25 mg daprodustat alone, plasma, read-out: AUC0-∞, Reference): 937 ng·h/mL
- Cmax ([4]; both sexes, human, oral, reference: 25 mg daprodustat alone, plasma, read-out: Cmax, Reference): 442 ng/mL
- AUC(0-t) ([4]; both sexes, human, oral, test: two 100 mg trimethoprim tablets (steady state) + 25 mg daprodustat, plasma, read-out: AUC0-t, Test): 1370 ng·h/mL
- AUC(0-inf) ([4]; both sexes, human, oral, test: two 100 mg trimethoprim tablets (steady state) + 25 mg daprodustat, plasma, read-out: AUC0-∞, Test): 1370 ng·h/mL
- Cmax ([4]; both sexes, human, oral, test: two 100 mg trimethoprim tablets (steady state) + 25 mg daprodustat, plasma, read-out: Cmax, Test): 560 ng/mL
- half-life ([4]; both sexes, human, plasma, oral, 25 mg daprodustat alone, read-out: median elimination half-life, alone (converted)): 3.06 h
- time of observed peak plasma levels ([4]; both treatment periods (with and without steady-state trimethoprim)): 1 h
- AUC0-t, Geometric LS mean ratio (90% CI) [4, 8]: 1.48 (1.39, 1.59)
- AUC0-∞, Geometric LS mean ratio (90% CI) [4, 8]: 1.48 (1.39, 1.59)
- Cmax, Geometric LS mean ratio (90% CI) [4, 8]: 1.28 (1.09, 1.51)
- IC50 (CYP2C8): 21 µM
- inhibition of other CYPs (other CYPs): no inhibition was observed

Structure (SMILES): CCc1ccc(CCOc2ccc(CC3SC(=O)NC3=O)cc2)nc1 (stereo not drawn) [pioglitazone]
- half-life [1]: 7.01 h
- fold increase in AUC0-∞ with gemfibrozil [5]: 3.4 fold

Structure (SMILES): CC(C)c1nc(N(C)S(C)(=O)=O)nc(-c2ccc(F)cc2)c1/C=C/[C@@H](O)C[C@@H](O)CC(=O)O [rosuvastatin]
- half-life [1]: 15.6 h
